Experiments:
[1] = test system: guinea pig ileum longitudinal muscle; assay: Guinea pig ileum test (inhibition of electrically induced twitch); format: cell-based; details: ratio of IC50 of reference Met5-enkephalin (=100) to IC50 of test compound in the same preparation, averaged, usually N=4
Description: Adult male guinea pigs (Charles River, Hartley strain) weighing 300-500 g. are decapitated, and the terminal ileum is exposed by reflecting the overlying cecum, severed at the ileocecal juncture, and removed while cutting the mesenteric attachments to avoid excessive traction on the tissue. The ileum (about 30 cm. in length) is transferred to a beaker containing warm modified Krebs-Henseleit solution (118 mM sodium chloride, 4.75 mM potassium chloride, 2.54 mM calcium chloride, 1.19 mM potassium dihydrogen phosphate, 1.2 mM magnesium sulfate, 25 mM sodium bicarbonate, 11 mM glucose, 20 μM choline chloride and 0.125 μM pyrilamine maleate). The terminal (aboral) portion (about 10 cm. in length) is discarded, and segments (3-4 cm. in length) are cut from the remainder and gently slid onto a glass rod (5-6 mm. in diameter) and arranged so that the meseneteric attachment is in a straight line. A cotton swab moistened in the solution is then carefully used to separate the longitudinal muscle from the underlying circular muscle. The longitudinal muscle and adhering myenteric plexus is then gently removed from the remaining tissue with forceps.
Strips of this prepared longitudinal muscle are mounted in a double-jacketed organ bath (5 ml.) under tension (1.0 g.), connected to isometric transducers (Grass FT .03), bathed in the modified Krebs-Henseleit solution described above, aerated with oxygen-carbon dioxide (95:5) and maintained at 37° C.
Stimulators (Grass S-44) are set to deliver repetitive monophasic square wave field stimulation (supramaximal voltage, 0.10 Hz., 0.25 msec. duration) through platinum ring electrodes at the top and bottom of the bath. Regular contractions of the muscle, which result from electrically-induced liberation of acetylcholine from postganglionic parasympathetic nerves, are recorded on a polygraph (Grass model 5). Following tissue equilibration (45-60 min.) and repeated washing (every 10 min.) an aqueous solution of a reference or test compound is added to the bath in a microliter volume (1.25-250 μl) and reductions in muscle twitch height are recorded. More compound can be added […] first washing the preparation.
From the results a half-mazimal inhibitory concentration (IC50) value for the compound is computed by regression analysis of a linear plot of logarithm of concentration against percent of inhibition of twitch height (probits). The ratio of the IC50 value of a reference compound to that of a test compound tested in the same preparation is the molar potency ratio. Usually four preparations are tested simultaneously by the same person (N=4), and the resulting four molar potency ratios are averaged.
The following results were obtained using the examples as test compounds and Met^5 -enkephalin as the reference compound.

[2] = test system: Male Swiss-Webster mice; assay: Mouse acetylcholine writhing test; format: in vivo; details: for ED50: Mus musculus, sc, subcutaneous, approximate values
Description: Male Swiss-Webster mice each weighing 18-24 g. are treated subcutaneously (10 ml./kg. injection volume) or orally with the test compound in an aqueous vehicle. Twenty minutes thereafter each mouse is injected intraperitoneally with acetylcholine (3.2 mg./kg.) in aqueous sodium chloride (0.9%). This dose of acetylcholine causes one or more characteristic writhes in the two minute period following injection in control mice which receive the aqueous vehicle not containing the test compound. […] Test compounds are screened at doses of 100 and 30 mg./kg. subcutaneously and 300 and 100 mg./kg. orally using 15 mice at each dose level. ED50 values for active compounds are estimated by probit analysis of quantal scores at four or more dose levels using 15 mice at each dose level.

[3] = test system: guinea pig ileum; details: cited from earlier work
[4] = test system: mouse vas deferens; details: cited from earlier work
[5] = test system: rat; details: rat tail flick, relative to morphine, cited from earlier work
[6] = test system: opiate receptor; details: rat brain membranes, relative to morphine; cited from earlier work

Row | Compound | Average Molar Potency Ratio [1] | other results
1 | L-tyrosyl-N-(3-phenylpropyl)-D-methioninamide S-oxide monohydrochloride sesquihydrate [Example 2] | 1180 | 
2 | CN(C(=O)[C@@H](N)Cc1ccc(O)cc1)[C@H](CC[S+](C)[O-])C(=O)NCCCc1ccccc1.Cl.O (stereo partly drawn) [Example 8, L-tyrosyl-N^2-methyl-N-(3-phenylpropyl)-D-methioninamide S-oxide monhydrochloride monohydrate] | 650 | 
3 | Met^5 -enkephalin [reference compound] | 100 | 
4 | N-methyl-L-tyrosyl-N-(3-phenylpropyl)-D-methioninamide S-oxide monohydrochloride hemihydrate [Example 6] | 360 | 
5 | CN(CCCc1ccccc1)C(=O)[C@@H](CC[S+](C)[O-])NC(=O)[C@@H](N)Cc1ccc(O)cc1.Cl.O (stereo partly drawn) [Example 4, L-tyrosyl-N-methyl-N-(3-phenylpropyl)-D-methioninamide S-oxide monohydrochloride monohydrate] | 5 | ED50 [2]: > 30 mg/kg
6 | L-tyrosyl-N-(3-phenylpropyl)-D-serinamide hydrate (3:2) [Example 10] | 15 | 
7 | Cl.NC(=O)CC[C@@H](NC(=O)[C@@H](N)Cc1ccc(O)cc1)C(=O)NCCCc1ccccc1.O [Example 9, L-tyrosyl-N^1-(3-phenylpropyl)-D-glutamamide monohydrochloride hydrate (4:3)] | 47 | 
8 | C[C@@H](NC(=O)[C@@H](N)Cc1ccc(O)cc1)C(=O)NCCNCCc1ccccc1 [HTyrD-AlaNH(CH2)2 NH(CH2)2 Phenyl] |  | potency relative to Met-enkephalin [3]: < 1%; potency relative to Met-enkephalin [4]: < 1%
9 | C[C@@H](NC(=O)[C@@H](N)Cc1ccc(O)cc1)C(N)=O [H-Tyr-D-Ala-NH2] |  | times less potent than morphine, intravenously ([5]; intravenous): greater than 10 times; times less potent than morphine, intraventricularly ([5]; intraventricular): 200 times; times less affinity than morphine [6]: 830 times
10 | CSCC[C@@H](NC(=O)[C@@H](N)Cc1ccc(O)cc1)C(=O)N(C)CCCc1ccccc1.Cl [Example 3, L-tyrosyl-N-methyl-N-(3-phenylpropyl)-D-methioninamide monohydrochloride] | 19 | 
11 | CSCC[C@H](C(=O)NCCCc1ccccc1)N(C)C(=O)[C@@H](N)Cc1ccc(O)cc1.Cl [Example 7, L-tyrosyl-N^2-methyl-N-(3-phenylpropyl)-D-methioninamide monohydrochloride] | 260 | 
12 | CN[C@@H](Cc1ccc(O)cc1)C(=O)N[C@@H](CCSC)C(=O)NCCCc1ccccc1.Cl.O [Example 5, N-methyl-L-tyrosyl-N-(3-phenylpropyl)-L-methioninamide monohydrochloride hydrate (4:1)] | 180 | 95% confidence limits of subcutaneous ED50 [2]: 5.0 to 12 mg/kg; subcutaneous ED50 ([2]; acetylcholine 3.2 mg./kg. i.p. 20 min after the compound, probit analysis): 8.5 mg/kg
13 | CSCC[C@@H](NC(=O)[C@@H](N)Cc1ccc(O)cc1)C(=O)NCCCc1ccccc1.Cl.O [Example 1, L-tyrosyl-N-(3-phenylpropyl)-D-methioninamide monohydrochloride monohydrate] | 279 | ED50 [2]: > 30 mg/kg
